Where a name gives a salt, the structure may show the parent alone.
Legend:
[1] = biological target: T1, HCV genotype 1b (BK) NS3 modified enzyme with a R155K mutation (Hepatitis C virus genotype 1b, UniProt P26663, R1181K); experiment: HCV NS3 protease time-resolved fluorescence (TRF) assay, genotype 1b R155K; assay type: biochemical; settings: Ki 1b R155K
T1 construct: HCV genotype 1b (BK) NS3 modified enzyme
Procedure, shortened: (§1)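 Time-resolved fluorescence, ex 340/em 615 nm, 400 μs delay; IC50 by four-parameter fit. Enzyme preincubated with compound 10 min, then TRF substrate 25 nM final added and reaction run 6 h at RT. Buffer HEPES pH 7.5 with NaCl, glycerol, Triton X-100, DTT, PEG 8000.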

[2] = biological target: HCV NS3 protease genotype 3a (3A-1) (Hepatitis C virus genotype 3a, UniProt Q81258); experiment: HCV NS3 protease time-resolved fluorescence (TRF) assay, genotype 3a; assay type: biochemical; settings: Ki 3a
Procedure, shortened: as §1

[3] = first of two values printed in the cell (not explained)
[4] = second of two values printed in the cell (not explained)
[5] = genotype 1b (BK) NS3 R155K, single value

Row | Compound | Ki [1, 3] | Ki [1, 4] | Ki [2] | Ki [1, 5]
1 | C=C[C@@H]1C[C@]1(NC(=O)[C@@H]1C[C@@H]2CN1C(=O)[C@H](C1CCCCC1)NC(=O)O[C@@H]1C[C@H]1CCCCCc1c(nc3ccccc3c1OC1CC3COCC(C1)N3CC)O2)C(=O)NS(=O)(=O)C1(C)CC1 (stereo partly drawn) [Example 290, 7-{[(1aR,5S,8S,10R,22aR)-5-cyclohexyl-8-{[(1R,2S)-2-ethenyl-1-{[(1-methylcyclopropyl)sulfonyl]carbamoyl}cyclopropyl]carbamoyl}-3,6-dioxo-1,1a,3,4,5,6,9,10,18,19,20,21,22,22a-tetradecahydro-8H-7,10-methanocyclopropa[18,19][1,10,3,6]dioxadiazacyclononadecino[11,12-b]quinolin-17-yl]oxy}-9-ethyl-3-oxa-9-azoniabicyclo[3.3.1]nonane formate] | 0.012 nM | 0.125 nM | 1.14 nM | 
2 | C=C[C@@H]1C[C@]1(NC(=O)[C@@H]1C[C@@H]2CN1C(=O)[C@H](C1CCCCC1)NC(=O)O[C@@H]1C[C@H]1CCCCCc1c(nc3ccccc3c1OC1CCCN(C)C1)O2)C(=O)NS(=O)(=O)C1(C)CC1 (stereo partly drawn) [Example 291, 3-{[(1aR,5S,8S,10R,22aR)-5-cyclohexyl-8-{[(1R,2S)-2-ethenyl-1-{[(1-methylcyclopropyl)sulfonyl]carbamoyl}cyclopropyl]carbamoyl}-3,6-dioxo-1,1a,3,4,5,6,9,10,18,19,20,21,22,22a-tetradecahydro-8H-7,10-methanocyclopropa[18,19][1,10,3,6]dioxadiazacyclononadecino[11,12-b]quinolin-17-yl]oxy}-1-methylpiperidinium formate] | 0.01 nM | 0.085 nM | 0.774 nM | 
3 | C=C[C@@H]1C[C@]1(NC(=O)[C@@H]1C[C@@H]2CN1C(=O)[C@H](C1CCCCC1)NC(=O)O[C@@H]1C[C@H]1CCCCCc1c(nc3ccccc3c1O[C@@H]1CCN(C(=O)OC(C)(C)C)C[C@@H]1F)O2)C(=O)NS(=O)(=O)C1(C)CC1 [Example 292, tert-butyl (3S,4R)-4-{[(1aR,5S,8S,10R,22aR)-5-cyclohexyl-8-{[(1R,2S)-2-ethenyl-1-{[(1-methylcyclopropyl)sulfonyl]carbamoyl}cyclopropyl]carbamoyl}-3,6-dioxo-1,1a,3,4,5,6,9,10,18,19,20,21,22,22a-tetradecahydro-8H-7,10-methanocyclopropa[18,19][1,10,3,6]dioxadiazacyclononadecino[11,12-b]quinolin-17-yl]oxy}-3-fluoropiperidine-1-carboxylate] | 0.12 nM | 0.733 nM | 49.4 nM | 
4 | C=C[C@@H]1C[C@]1(NC(=O)[C@@H]1C[C@@H]2CN1C(=O)[C@H](C(C)(C)C)NC(=O)O[C@H]1C[C@@H]1CCCCCc1c(nc3ccncc3c1OC1CCN(C)CC1)O2)C(=O)NS(=O)(=O)C1(C)CC1 [Example 295, (1aS,5S,8S,10R,22aS)-5-tert-butyl-N-{(1R,2S)-2-ethenyl-1-[(1-methylcyclopropanesulfonamido)carbonyl]cyclopropyl}-17-[(1-methylpiperidin-4-yl)oxy]-3,6-dioxo-1,1a,3,4,5,6,9,10,18,19,20,21,22,22a-tetradecahydro-8H-7,10-methanocyclopropa[18,19][1,10,3,6]dioxadiazacyclononadecino[11,12-b][1,6]naphthyridine-8-carboxamide] |  |  | 1.07 nM | 0.082 nM
5 | CC1(S(=O)(=O)NC(=O)[C@@]23C[C@H]2/C=C\CCCCC[C@@H]2NC(=O)O[C@@H]4C[C@H]4CCC/C=C/c4c(nc5ccccc5c4OCCN4CCCCC4)O[C@@H]4C[C@@H](C(=O)N3)N(C4)C2=O)CC1 [Example 296, (1aR,5S,11Z,12aS,13aR,16S,19R,27E,31aR)—N-[(1-methylcyclopropyl)sulfonyl]-3,15,33-trioxo-26-[2-(piperidin-1-yl)ethoxy]-1,1a,3,4,5,6,7,8,9,10,12a,13,15,16,18,19,29,30,31,31a-icosahydro-5,17:16,19-dimethanodicyclopropa[12,13:28,29][1,20,3,14,17]dioxatriazacyclononacosino[21,22-b]quinoline-13a(14H)-carboxamide] |  |  | 6 nM | 0.27 nM
6 | CC1(S(=O)(=O)NC(=O)[C@@]23C[C@H]2/C=C\CCCCC[C@@H]2NC(=O)O[C@@H]4C[C@H]4CCC/C=C/c4c(nc5ccccc5c4OCCN4CCOCC4)O[C@@H]4C[C@@H](C(=O)N3)N(C4)C2=O)CC1 [Example 297, (1aR,5S,11Z,12aS,13aR,16S,19R,27E, 31aR)-N-[(1-methylcyclopropyl)sulfonyl]-26-[2-(morpholin-4-yl)ethoxy]-3,15,33-trioxo-1,1a,3,4,5,6,7,8,9,10,12a,13,15,16,18,19,29, 30,31,31a-icosahydro-5,17:16,19-dimethanodicyclopropa[12,13:28,29][1,20,3, 14,17]dioxatriazacyclononacosino[21,22-b]quinoline-13a(14H)-carboxamide] |  |  | 4.3 nM | 0.27 nM
7 | CC1(S(=O)(=O)NC(=O)[C@@]23C[C@H]2/C=C\CCCCC[C@@H]2NC(=O)O[C@@H]4C[C@H]4CCC/C=C/c4c(nc5ccccc5c4OCCCN4CCOCC4)O[C@@H]4C[C@@H](C(=O)N3)N(C4)C2=O)CC1 [Example 298, (1aR,5S,11Z,12aS,13aR,16S,19R,27E, 31aR)-N-[(1-methylcyclopropyl)sulfonyl]-26-[3-(morpholin-4-yl)propoxy]-3,15,33-trioxo-1,1a,3,4,5,6,7,8,9,10,12a,13,15,16,18,19,29, 30,31,31a-icosahydro-5,17:16,19-dimethanodicyclopropa[12,13:28,29][1,20,3,14,17]dioxatriazacyclononacosino[21,22-b]quinoline-13a(14H)-carboxamide] |  |  | 4 nM | 0.49 nM
8 | CC1(S(=O)(=O)NC(=O)[C@@]23C[C@H]2/C=C\CCCCC[C@@H]2NC(=O)O[C@@H]4C[C@H]4CCC/C=C/c4c(nc5ccccc5c4OCCN4CCCC4)O[C@@H]4C[C@@H](C(=O)N3)N(C4)C2=O)CC1 [Example 299, (1aR,5S,11Z,12aS,13aR,16S,19R,27E, 31aR)-N-[(1-methylcyclopropyl)sulfonyl]-3,15,33-trioxo-26-[2-(pyrrolidin-1-yl)ethoxy]-1,1a,3,4,5,6,7,8,9,10,12a,13,15,16,18,19,29, 30,31,31a-icosahydro-5,17:16,19-dimethanodicyclopropa[12,13:28,29][1,20,3, 14,17]dioxatriazacyclononacosino[21,22-b]quinoline-13a(14H)-carboxamide] |  |  | 3.8 nM | 0.19 nM
9 | COc1c2c(nc3ccccc13)O[C@@H]1C[C@H]3C(=O)N[C@]4(C(=O)NS(=O)(=O)C5(C)CC5)C[C@H]4/C=C\CCCCC[C@H](NC(=O)O[C@@H]4C[C@H]4CCC/C=C/2)C(=O)N3C1 [Example 300, (1aR,5S,11Z,12aS,13aR,16S,19R,27E,31aR)-26-methoxy-N-[(1-methylcyclopropyl)sulfonyl]-3,15,33-trioxo-1,1a,3,4,5,6,7,8,9,10,12a,13,15,16,18,19,29,30,31,31a-icosahydro-5,17:16,19-dimethanodicyclopropa[12,13:28,29][1,20,3,14,17]dioxatriazacyclononacosino[21,22-b]quinoline-13a(14H)-carboxamide] |  |  | 7.1 nM | 0.23 nM
10 | CC1(S(=O)(=O)NC(=O)[C@@]23C[C@H]2/C=C\CCCCC[C@@H]2NC(=O)O[C@@H]4C[C@H]4CCCCCc4c(nc5ccccc5c4OCCN4CCOCC4)O[C@@H]4C[C@@H](C(=O)N3)N(C4)C2=O)CC1 [Example 301, (1aR,5S,11Z,12aS,13aR,16S,19R,31aR)—N-[(1-methylcyclopropyl)sulfonyl]-26-[2-(morpholin-4-yl)ethoxy]-3,15,33-trioxo-1,1a,3,4,5,6,7,8,9,10,12a,13,15,16,18,19,27,28,29,30,31,31a-docosahydro-5,17:16,19-dimethanodicyclopropa[12,13:28,29][1,20,3,14,17]dioxatriazacyclononacosino[21,22-b]quinoline-13a(14H)-carboxamide] |  |  | 5.9 nM | 0.35 nM
11 | CC1(S(=O)(=O)NC(=O)[C@@]23C[C@H]2/C=C\CCCCC[C@@H]2NC(=O)O[C@@H]4C[C@H]4CCC/C=C/c4c(nc5ccccc5c4OCCCN4CCCCC4)O[C@@H]4C[C@@H](C(=O)N3)N(C4)C2=O)CC1 [Example 302, (1aR,5S,11Z,12aS,13aR,16S,19R,27E,31aR)—N-[(1-methylcyclopropyl)sulfonyl]-3,15,33-trioxo-26-[3-(piperidin-1-yl)propoxy]-1,1a,3,4,5,6,7,8,9,10,12a,13,15,16,18,19,29,30,31,31a-icosahydro-5,17:16,19-dimethanodicyclopropa[12,13:28,29][1,20,3,14,17]dioxatriazacyclononacosino[21,22-b]quinoline-13a(14H)-carboxamide] |  |  | 2 nM | 0.16 nM
12 | CC1(S(=O)(=O)NC(=O)[C@@]23C[C@H]2/C=C\CCCCC[C@@H]2NC(=O)O[C@@H]4C[C@H]4CCC/C=C/c4c(nc5ccccc5c4OCCCN4CCCC4)O[C@@H]4C[C@@H](C(=O)N3)N(C4)C2=O)CC1 [Example 303, (1aR,5S,11Z,12aS,13aR,16S,19R,27E, 31aR)-N-[(1-methylcyclopropyl)sulfonyl]-3,15,33-trioxo-26-[3-(pyrrolidin-1-yl)propoxy]-1,1a,3,4,5,6,7,8,9,10,12a,13,15,16,18, 19,29,30,31,31a-icosahydro-5,17:16,19-dimethanodicyclopropa[12,13:28,29] [1,20,3,14,17] dioxatriazacyclononacosino[21,22-b]quinoline-13a(14H)-carboxamide] |  |  | 3.6 nM | 0.28 nM

— patent US9328138B2 (priority 2011, dated 2016)
